Results published in patent EP1644371B1, “PYRAZOLOISOQUINOLINE DERIVATIVES AS KINASE INHIBITORS” (Aventis Pharmaceuticals Inc., priority 2003, dated 2005).
Read-outs that look alike come from different tables or passages of the source.

Tests used:
Assay type in all cases: cell-based
[1] = tested on: IL1 β-stimulated human peripheral blood lymphocytes; test: Cytokine release in IL1β-stimulated human peripheral blood lymphocytes (ELISA); conditions: Lymphocyte
Protocol: The pyrazoloisoquinoline derivatives according to the invention were tested for inhibitory activity against NIK in various in vitro assay systems. In this connection, human peripheral blood lymphocytes were preincubated for 1 h with different concentrations of the compounds and then stimulated for 24 h with LPS or IL1 β. […] The cytotoxicity was measured by way of LDH release using a commercially obtainable test kit and the LD50 for the given compound was determined.

[2] = tested on: LPS-stimulated heparinized whole human blood; test: Release of IL1β, TNFα and IL6 in LPS-stimulated heparinized whole human blood; conditions: 24 h
Protocol: In another assay, heparinized whole human blood was preincubated for 1 h with different concentrations of the compounds and then stimulated with LPS for 24 h. Commercially available test kits were used to measure the release of IL1β, TNFα and IL6 in the supernatant after 24 h, and the IC50 for the given compound was determined.

[3] = tested on: human peripheral blood lymphocytes; test: Cytotoxicity by LDH release
Protocol: (§1) The pyrazoloisoquinoline derivatives according to the invention were tested for inhibitory activity against NIK in various in vitro assay systems. In this connection, human peripheral blood lymphocytes were preincubated for 1 h with different concentrations of the compounds and then stimulated for 24 h with LPS or IL1 β. After that, a commercially obtainable ELISA test kit was used to measure the release of TNFα in the culture supernatant, and the IC50 for the given compound was determined. The cytotoxicity was measured by way of LDH release using a commercially obtainable test kit and the LD50 for the given compound was determined.

[4] = tested on: LPS-stimulated human peripheral blood lymphocytes; test: Cytokine release in LPS-stimulated human peripheral blood lymphocytes (ELISA); conditions: Lymphocyte
Protocol: as §1

[5] = 1 h preincubation, 24 h stimulation, read-out: TNFα release IC50
[6] = IL1 β-stimulated human peripheral blood lymphocytes (Table 2)
[7] = LPS-stimulated human peripheral blood lymphocytes (Table 1)

Compound	IC50 [1, 5]	IC50 ([1]; read-out: IL6 release IC50)	IC50 ([2]; read-out: IL1β release IC50)	IC50 ([2]; read-out: IL6 release IC50)	IC50 ([2]; read-out: TNFα release IC50)	Cytotoxicity LD50 [3, 6]	Cytotoxicity LD50 [3, 7]	IC50 [4, 5]	IC50 ([4]; read-out: IL6 release IC50)
c1ccc(-c2nc3c(-c4ccccc4)n[nH]c3c3ccccc23)cc1 [Example 1, 3,5-Diphenyl-1H-pyrazolo[4,3-c]isoquinoline]	5 µM	80 µM	33 µM	> 100 µM	12.5 µM	>100 µM	> 100 µM	1.9 µM	80 µM
COc1cccc(-c2nc3c(C)n[nH]c3c3ccccc23)c1 [Example 2, 5-(3-Methoxyphenyl)-3-methyl-1H-pyrazolo[4,3-c]isoquinoline]	35 µM	> 100 µM	1.3 µM	7 µM	1.2 µM	> 100 µM	> 100 µM	9 µM	> 100 µM
Cc1n[nH]c2c1nc(-c1cccc(O)c1)c1ccccc12 [Example 3, 3-(3-Methyl-1H-pyrazolo[4,3-c]isoquinolin-5-yl)phenol]	8 µM	> 100 µM	29 µM	> 100 µM	5 µM	> 100 µM	> 100 µM	7.5 µM	80 µM
